Key:
UT-SCC-54C cells [1] = assay: Radiosensitisation of UT-SCC-54C HNSCC cells, regrowth (sulforhodamine B) assay, oxic (Table 16); assay type: cell-based, human; conditions: for IC50: Homo sapiens, read-out: IC50; for S50: compound in combination with 3 Gy of radiation, 50% inhibition of regrowth fraction, UT-SCC-54C; for S50 / radiosensitisation / differential growth inhibition of UT-SCC-54C cells: oxic; for radiosensitisation / differential growth inhibition of UT-SCC-54C cells: 0 or 3 Gy, regrowth assay
human DNA-PK = human DNA-PK (Homo sapiens, UniProt P78527); assay: Inhibition of DNA-PKcs kinase activity, HotSpot assay (Reaction Biology), [γ-33P]-ATP phosphorylation of peptide substrate; assay type: biochemical; conditions: 10 μM ATP, 10 μg/ml DNA; mean of two replicates; Table 12; read-out: Inhibition of kinase activity (as IC50) DNA-PK (converted)
human PI3Kα (p110α/p85α) = human PI3Kα (p110α/p85α) (Homo sapiens, UniProt P42336); assay: Inhibition of PI3Kα kinase activity, ADP-Glo Assay (Reaction Biology); assay type: biochemical; conditions: 10 μM ATP; mean of two replicates; Table 12; read-out: Inhibition of kinase activity (as IC50) PICK
Sequence of human PI3Kα (p110α/p85α) (P42336 whole entry): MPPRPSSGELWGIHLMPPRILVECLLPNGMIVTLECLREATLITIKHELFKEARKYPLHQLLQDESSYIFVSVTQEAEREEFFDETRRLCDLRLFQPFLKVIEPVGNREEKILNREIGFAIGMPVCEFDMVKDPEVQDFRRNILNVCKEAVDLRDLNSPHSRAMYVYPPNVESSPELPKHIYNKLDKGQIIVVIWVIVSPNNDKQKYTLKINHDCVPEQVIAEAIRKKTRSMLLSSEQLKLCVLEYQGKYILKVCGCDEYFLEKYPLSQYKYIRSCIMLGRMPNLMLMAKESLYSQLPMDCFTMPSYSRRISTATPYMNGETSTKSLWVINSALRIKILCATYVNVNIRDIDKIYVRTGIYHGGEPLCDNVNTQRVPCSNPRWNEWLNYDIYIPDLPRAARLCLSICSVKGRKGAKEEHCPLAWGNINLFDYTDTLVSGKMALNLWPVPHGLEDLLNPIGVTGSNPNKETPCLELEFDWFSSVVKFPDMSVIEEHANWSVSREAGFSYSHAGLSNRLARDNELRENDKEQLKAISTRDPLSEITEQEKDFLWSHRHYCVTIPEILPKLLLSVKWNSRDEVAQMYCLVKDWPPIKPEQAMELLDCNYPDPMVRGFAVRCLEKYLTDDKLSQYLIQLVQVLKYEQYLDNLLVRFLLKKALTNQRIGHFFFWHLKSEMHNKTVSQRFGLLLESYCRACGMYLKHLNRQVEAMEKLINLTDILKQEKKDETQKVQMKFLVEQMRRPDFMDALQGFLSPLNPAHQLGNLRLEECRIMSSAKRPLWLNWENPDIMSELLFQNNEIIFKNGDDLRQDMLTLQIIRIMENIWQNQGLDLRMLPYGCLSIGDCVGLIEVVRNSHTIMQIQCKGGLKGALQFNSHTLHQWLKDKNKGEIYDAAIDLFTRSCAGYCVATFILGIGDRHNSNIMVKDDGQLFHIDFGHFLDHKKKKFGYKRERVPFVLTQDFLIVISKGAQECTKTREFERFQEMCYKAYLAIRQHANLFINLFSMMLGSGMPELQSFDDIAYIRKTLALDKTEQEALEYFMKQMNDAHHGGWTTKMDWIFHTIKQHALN
Sequence of human PI3Kα (p110α/p85α) (P27986 whole entry partner): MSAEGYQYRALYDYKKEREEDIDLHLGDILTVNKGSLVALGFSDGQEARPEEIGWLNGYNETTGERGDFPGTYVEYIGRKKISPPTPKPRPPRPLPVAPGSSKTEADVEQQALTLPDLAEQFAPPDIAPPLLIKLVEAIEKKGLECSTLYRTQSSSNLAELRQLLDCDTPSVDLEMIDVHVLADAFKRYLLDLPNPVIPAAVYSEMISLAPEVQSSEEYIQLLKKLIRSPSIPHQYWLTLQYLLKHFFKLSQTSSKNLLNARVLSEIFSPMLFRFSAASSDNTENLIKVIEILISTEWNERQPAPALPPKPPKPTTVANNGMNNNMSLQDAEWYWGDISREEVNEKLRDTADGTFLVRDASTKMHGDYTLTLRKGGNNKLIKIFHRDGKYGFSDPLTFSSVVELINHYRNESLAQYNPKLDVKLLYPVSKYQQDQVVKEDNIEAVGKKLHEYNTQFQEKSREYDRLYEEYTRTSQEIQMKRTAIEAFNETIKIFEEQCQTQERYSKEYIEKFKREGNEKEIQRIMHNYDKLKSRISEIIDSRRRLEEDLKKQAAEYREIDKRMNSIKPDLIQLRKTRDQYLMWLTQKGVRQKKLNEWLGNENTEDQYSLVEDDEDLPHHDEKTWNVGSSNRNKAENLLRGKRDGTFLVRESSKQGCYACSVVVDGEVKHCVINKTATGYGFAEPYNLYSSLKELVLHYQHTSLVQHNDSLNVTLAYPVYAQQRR

UT-SCC-54C cells [2] = assay: Radiosensitisation of UT-SCC-54C HNSCC cells, clonogenic survival, oxic and anoxic (Table 18); assay type: cell-based, human; conditions: for Plating efficiency drug/no drug: no radiation; for sensitisation of UT-SCC-54C cells selectively under anoxia: oxic vs anoxic, clonogenic survival, FIGS. 9 and 10

SMILES	IC50 (human DNA-PK) [nM]	IC50 (human PI3Kα (p110α/p85α)) [nM]	IC50 (UT-SCC-54C cells [1]) [nM]	S50 (UT-SCC-54C cells [1]) [µM]	radiosensitisation / differential growth inhibition of UT-SCC-54C cells (UT-SCC-54C cells [1])	further results
Cn1c(=O)n(C2CCCC2)c2cc(Nc3ccc4ncsc4c3)ncc21 [Compound 70, 6-(Benzo[d]thiazol-6-ylamino)-1-cyclopentyl-3-methyl-1,3-dihydro-2H-imidazo[4,5-c]pyridin-2-one]	–	–	> 10000	2.62	–	–
Cc1ccncc1Nc1cc2c(cn1)n(C)c(=O)n2C1CCCC1 [Compound 78, 1-Cyclopentyl-3-methyl-6-((4-methylpyridin-3-yl)amino)-1,3-dihydro-2H-imidazo[4,5-c]pyridin-2-one]	–	–	> 10000	4.09	–	–
COc1ccc(N(C(=O)OCc2ccccc2)c2cc3c(cn2)n(C)c(=O)n3C2CCN(C(=O)OC(C)(C)C)CC2)c(C)c1 [Compound 154, tert-Butyl 4-(6-(((Benzyloxy)carbonyl)(4-methoxy-2-methylphenyl)amino)-3-methyl-2-oxo-2,3-dihydro-1H-imidazo[4,5-c]pyridin-1-yl)piperidine-1-carboxylate]	–	–	> 10000	2.06	–	–
COc1ccc(-n2c(=O)n(C)c3cnc(Nc4ccc(OC)cc4C)cc32)cc1 [Compound 195, 6-((4-Methoxy-2-methylphenyl)amino)-1-(4-methoxyphenyl)-3-methyl-1,3-dihydro-2H-imidazo[4,5-c]pyridin-2-one]	–	–	–	–	–	D1 (radiation dose for 1% surviving fraction) (UT-SCC-54C cells [2]; 20% O2, compound conc 0.33 μM): 1.53 Gy; D10 (radiation dose for 10% surviving fraction) (UT-SCC-54C cells [2]; 20% O2, compound conc 0.33 μM): 4.67 Gy; D1 (radiation dose for 1% surviving fraction) (UT-SCC-54C cells [2]; 20% O2, compound conc 1 μM): 2.75 Gy; D10 (radiation dose for 10% surviving fraction) (UT-SCC-54C cells [2]; 20% O2, compound conc 1 μM): 2.60 Gy; D1 (radiation dose for 1% surviving fraction) (UT-SCC-54C cells [2]; 20% O2, compound conc 3 μM): 3.90 Gy; D10 (radiation dose for 10% surviving fraction) (UT-SCC-54C cells [2]; 20% O2, compound conc 3 μM): 1.83 Gy; radiosensitisation, clonogenic survival endpoint (UT-SCC-54C cells [2]; UT-SCC-54C, FIG. 8 and Table 18): concentration-dependent increases in radiosensitisation
Cc1cc(OC(C)c2cnc([N+](=O)[O-])n2C)ccc1Nc1cc2c(cn1)n(C)c(=O)n2C1CCOCC1 (stereo not drawn) [Compound 238, 3-Methyl-6-((2-methyl-4-(1-(1-methyl-2-nitro-1H-imidazol-5-yl)ethoxy)phenyl)amino)-1-(tetrahydro-2H-pyran-4-yl)-1,3-dihydro-2H-imidazo[4,5-c]pyridin-2-one]	–	–	> 10000	>10	did not display any differential growth inhibition	D1 (radiation dose for 1% surviving fraction) (UT-SCC-54C cells [2]; 0% O2, compound conc 1 μM): 15.0 Gy; D10 (radiation dose for 10% surviving fraction) (UT-SCC-54C cells [2]; 0% O2, compound conc 1 μM): 8.46 Gy; SER1 (sensitiser enhancement ratio at 1% surviving fraction) (UT-SCC-54C cells [2]; 0% O2, compound conc 1 μM): 1.44; SER10 (sensitiser enhancement ratio at 10% surviving fraction) (UT-SCC-54C cells [2]; 0% O2, compound conc 1 μM): 1.65; Plating efficiency drug/no drug (UT-SCC-54C cells [2]; 0% O2, compound conc 1 μM): 1.02; sensitisation of UT-SCC-54C cells selectively under anoxia (UT-SCC-54C cells [2]): provide sensitisation of UT-SCC-54C cells selectively under anoxia
Cc1cc(OCc2ncc([N+](=O)[O-])n2C)ccc1Nc1cc2c(cn1)n(C)c(=O)n2C1CCOCC1 [Compound 240, 3-Methyl-6-((2-methyl-4-((1-methyl-5-nitro-1H-imidazol-2-yl)methoxy)phenyl)amino)-1-(tetrahydro-2H-pyran-4-yl)-1,3-dihydro-2H-imidazo[4,5-c]pyridin-2-one]	–	–	> 10000	>10	did not display any differential growth inhibition	–
COc1ccc(N(C(=O)OC(C)c2cnc([N+](=O)[O-])n2C)c2cc3c(cn2)n(C)c(=O)n3C2CCOCC2)c(C)c1 (stereo not drawn) [Compound 250, 1-(1-Methyl-2-nitro-1H-imidazol-5-yl)ethyl (4-methoxy-2-methylphenyl)(3-methyl-2-oxo-1-(tetrahydro-2H-pyran-4-yl)-2,3-dihydro-1H-imidazo[4,5-c]pyridin-6-yl)carbamate]	–	–	> 10000	>10	did not display any differential growth inhibition	D1 (radiation dose for 1% surviving fraction) (UT-SCC-54C cells [2]; 0% O2, compound conc 1 μM): 10.83 Gy; D10 (radiation dose for 10% surviving fraction) (UT-SCC-54C cells [2]; 0% O2, compound conc 1 μM): 5.78 Gy; SER1 (sensitiser enhancement ratio at 1% surviving fraction) (UT-SCC-54C cells [2]; 0% O2, compound conc 1 μM): 1.87; SER10 (sensitiser enhancement ratio at 10% surviving fraction) (UT-SCC-54C cells [2]; 0% O2, compound conc 1 μM): 2.09; Plating efficiency drug/no drug (UT-SCC-54C cells [2]; 0% O2, compound conc 1 μM): 0.98; sensitisation of UT-SCC-54C cells selectively under anoxia (UT-SCC-54C cells [2]): provide sensitisation of UT-SCC-54C cells selectively under anoxia
COc1ccc(-n2c(=O)n(C)c3cnc(N(C(=O)OCc4cnc([N+](=O)[O-])n4C)c4ccc(OC)cc4C)cc32)cc1 [Compound 259, (1-Methyl-2-nitro-1H-imidazol-5-yl)methyl (4-methoxy-2-methylphenyl)(1-(4-methoxyphenyl)-3-methyl-2-oxo-2,3-dihydro-1H-imidazo[4,5-c]pyridin-6-yl)carbamate]	–	–	> 10000	>10	did not display any differential growth inhibition	–

More lines, main results first:

IC50 (human DNA-PK) [nM]	IC50 (human PI3Kα (p110α/p85α)) [nM]	SMILES	IC50 (UT-SCC-54C cells [1]) [nM]	S50 (UT-SCC-54C cells [1]) [µM]	radiosensitisation / differential growth inhibition of UT-SCC-54C cells (UT-SCC-54C cells [1])	further results
422	5450	Cc1cc(OCc2ccccc2)ccc1Nc1cc2c(cn1)n(C)c(=O)n2C1CCOCC1 [Compound 124, 6-((4-(Benzyloxy)-2-methylphenyl)amino)-3-methyl-1-(tetrahydro-2H-pyran-4-yl)-1,3-dihydro-2H-imidazo[4,5-c]pyridin-2-one]	–	–	–	–
> 10000	> 10000	Cc1cc(Cl)ccc1N(C(=O)OCc1ccccc1)c1cc2c(cn1)n(C)c(=O)n2C1CCOCC1 [Compound 134, Benzyl (4-Chloro-2-methylphenyl)(3-methyl-2-oxo-1-(tetrahydro-2H-pyran-4-yl)-2,3-dihydro-1H-imidazo[4,5-c]pyridin-6-yl)carbamate]	–	–	–	–
0.27	237	COc1ccc(-n2c(=O)n(C)c3cnc(Nc4ccc(Cl)cc4C)cc32)cc1 [Compound 196, 6-((4-Chloro-2-methylphenyl)amino)-1-(4-methoxyphenyl)-3-methyl-1,3-dihydro-2H-imidazo[4,5-c]pyridin-2-one]	> 10000	0.68	–	–
23	1800	COc1ccc(-n2c(=O)n(C)c3cnc(Nc4ccc(S(C)(=O)=O)cc4C)cc32)cc1 [Compound 198, 1-(4-Methoxyphenyl)-3-methyl-6-((2-methyl-4-(methylsulfonyl)phenyl)amino)-1,3-dihydro-2H-imidazo[4,5-c]pyridin-2-one]	> 10000	0.17	–	–
55	–	COc1ccc(-n2c(=O)n(C)c3cnc(Nc4ccc(OCc5ccccc5)cc4C)cc32)cc1 [Compound 199, 6-((4-(Benzyloxy)-2-methylphenyl)amino)-1-(4-methoxyphenyl)-3-methyl-1,3-dihydro-2H-imidazo[4,5-c]pyridin-2-one]	–	–	–	–
< 0.51	803	Cc1cc(Cl)ccc1Nc1cc2c(cn1)n(C)c(=O)n2-c1ccc(C(C)(C)C#N)cc1 [Compound 212, 2-(4-(6-((4-Chloro-2-methylphenyl)amino)-3-methyl-2-oxo-2,3-dihydro-1H-imidazo[4,5-c]pyridin-1-yl)phenyl)-2-methylpropanenitrile]	> 10000	0.51	–	–
43	–	Cn1c(=O)n(-c2ccc(C(C)(C)C#N)cc2)c2cc(Nc3ccc4nccnc4c3)ncc21 [Compound 214, 2-Methyl-2-(4-(3-methyl-2-oxo-6-(quinoxalin-6-ylamino)-2,3-dihydro-1H-imidazo[4,5-c]pyridin-1-yl)phenyl)propanenitrile]	–	–	–	–
116	1280	COc1ccc(-n2c(=O)n(C)c3cnc(Nc4ccc(OCc5cnc([N+](=O)[O-])n5C)cc4C)cc32)cc1 [Compound 246, 1-(4-Methoxyphenyl)-3-methyl-6-((2-methyl-4-((1-methyl-2-nitro-1H-imidazol-5-yl)methoxy)phenyl)amino)-1,3-dihydro-2H-imidazo[4,5-c]pyridin-2-one]	> 10000	6.08	did not display any differential growth inhibition	–
